Experimental data: patent publication US10092566B2, “Composition for controlling a gut immunity and use thereof” (SEOUL NATIONAL UNIVERSITY R&DB FOUNDATION, priority 2013, dated 2018)

What was measured:
E. carotovora-pyrE::Tn5 = test: Bacterial persistence in the midgut (CFU); type: in vivo, Erwinia carotovora; settings: coingestion of 1 nM uracil with E. carotovora-pyrE::Tn5; CFU 6 hours after ingestion
Protocol: To measure gut sustainability of E. carotovora strains (E. carotovora, E. carotovora-pyrE::Tn5, and E. carotovora-pyrE::Tn5-pyrE), a 5% sucrose solution containing approx. 10^10 cells of E. carotovora strains were orally administered to female adult Drosophila (5 to 6 days old) for 2 hours. Midguts were dissected at 6 hours after ingestion. Midguts, posterior guts, and crops of which the surfaces were sterilized were homogenized and diluted accordingly. These were smeared on a Luria-Bertani agar plate, and some of colony-forming units (CFUs) were obtained from each midgut. During the recovery experiment, the coingestion of E. carotovora-pyrE::Tn5 (+uracil) and 1 nM of uracil or the expression of an E. carotovora-pyrE::Tn5 strain, which was genetically recovered by the expression of functional pyrE genes (+pyrE), was utilized.

gut cells = settings: in vivo
Protocol: To measure cell apoptosis in gut cells caused by a long-term exposure to uracil, genetically different germ-free adult Drosophila (5 to 6 days old) were maintained on the standard corn meal agar media with a supplemental 1 nM of uracil for 20 days.
Midguts of female Drosophila (20 days old) collected above were used for the analysis of cell apoptosis. Midguts were dissected in PBS, and cell apoptosis analysis was conducted by terminal deoxynucleotidyl transferase (TdT)-mediated dUDP nick end labeling method as disclosed in the previous research (Ryu et al., Science 319, pp. 777-782, 2008).
The cell apoptotic index was indicated by dividing the number of apoptotic cells with respect to the total number of cells and multiplying the value by 100.

Ce-DUOX1 = test: ROS (DUOX-dependent H2O2) measurement in C. elegans; type: in vivo; settings: uracil-containing media, 2 hours
From the text: C. elegans were raised and maintained as disclosed in the previous research (Chavez et al., Infect Immun 77, pp. 4983-4989, 2009). As disclosed in the previous research, L1 nematodes were fed with bacteria containing Ce-DUOX1-RNAi vectors throughout the step L4 to introduce Ce-DUOX1-RNAi (Chavez et al., Infect Immun 77, pp. 4983-4989, 2009). Standard feeding system RNAi process using Ce-DUOX1-RNAi may cause a developmental disability which indicates a serious level of mortality. As disclosed in the previous research, to give a partial knock-down effect, Ce-DUOX1-RNAi bacteria were mixed with bacteria containing control RNAi at a ratio of 1:70. In the early adult stage, nematodes were obtained and washed with M9 minimal media. Nematodes (about 200 to 300 individuals) were placed in a 96-well plate comprising uracil-containing media ([…]) at 20° C. for 2 hours.
DUOX-dependent H2O2, as basically disclosed in the previous research (Chavez et al., Infect Immun 77, pp. 4983-4989, 2009), was measured at room temperature for 2 hours following addition of […] of Amplex UltraRed solution (Invitrogen) and […] of reacting buffer including 0.2 units/mL of horseradish peroxidase (Sigma). Fluorescence of each sample was measured by fluorescent microplate readers at 530 nm of excitation wavelength and 590 nm of emission wavelength. […]

Upd3-JAK-STAT pathway = test: Epithelial cell renewal program and Upd3-JAK-STAT reporter analysis; type: in vivo, Drosophila
Protocol: To examine a renewal program for epithelial cells, a 5% sucrose solution containing 20 nM of uracil (for 16 hours) or different bacteria (approx. 5×10^8 cells; E. carotovora, E. carotovora-pyrE::Tn5 and E. carotovora-pyrE::Tn5-pyrE for 22 hours) was orally administered to genetically different adult Drosophila (5 to 6 days old). For the recovery experiment, Drosophila coingested URA− strain (E. carotovora-pyrE::Tn5) and 1 nM of uracil. Following the dissection of the gut, the gut was treated with primary antibodies [anti-phospho-histone H3 (1:2000 dilution; Millipore), anti-LacZ (1:1000 dilution; Cappel), or anti-Prospero (1:100 dilution; Developmental Studies Hybridoma Bank)]. Then, the gut was treated with secondary antibodies (Alexa Fluor 568 goat anti-rabbit IgG or Alexa Fluor 488 goat anti-murine IgG (Invitrogen)). DAPI was used for nuclear staining.
Drosophila containing esg-GAL4> UAS-GFP were used to analyze ISC proliferation and differentiation. A 5% sucrose solution containing 20 nM of uracil (for 16 hours) or different bacteria (E. carotovora, E. carotovora-pyrE::Tn5, and E. carotovora-pyrE::Tn5-pyrE, approx. 5×10^8 cells, for 22 hours) was orally administered to Drosophila (5 to 6 days old). For the recovery experiment, Drosophila coingested a URA− strain (E. carotovora-pyrE::Tn5) and 1 nM of uracil. […]

PLCβ = PLCβ position in cell membrane (PLCβ-RFP flies); type: in vivo, Drosophila; settings: uracil 20 nM for 2 hours
Protocol: Genetically modified Drosophila containing PLCβ-RFP (UAS-PLCβ-RFP; Da-GAL4) were used to monitor activated PLCβ generation which is targeted in the membrane as disclosed in the previous research (Ha et al., Nat Immunol 10, pp. 949-957, 2009). A 5% sucrose solution containing 20 nM of uracil was ingested by Drosophila (5 to 6 days old) for 2 hours.

O=c1cc[nH]c(=O)[nH]1 [uracil]
prolonged midgut persistence of URA− pathogens (E. carotovora-pyrE::Tn5): abolished | gut cell apoptosis after long-term ingestion of uracil (gut cells): Extensive apoptosis in gut cells | DUOX-dependent ROS generation in C. elegans (Ce-DUOX1): able to activate DUOX-dependent ROS generation | restoration of infection-induced Upd3-JAK-STAT signaling, ISC proliferation, differentiation and enteroblast accumulation (Upd3-JAK-STAT pathway; coingestion of 1 nM uracil with URA− strain E. carotovora-pyrE::Tn5): sufficient to restore | Upd3-JAK-STAT pathway activation and epithelial cell renewal by uracil ingestion alone (Upd3-JAK-STAT pathway; uracil 20 nM, PLCβ-dependent): sufficient to trigger | PLC activation (membrane localization of active PLC) (PLCβ): PLC activation
